{"source": "ChEMBL document CHEMBL1201862", "about": "“PubChem BioAssay data set” (2004)", "key": {"Protein skinhead-1": {"target": "T1, Protein skinhead-1 (Caenorhabditis elegans, UniProt P34707)", "T1 sequence (P34707 whole entry)": "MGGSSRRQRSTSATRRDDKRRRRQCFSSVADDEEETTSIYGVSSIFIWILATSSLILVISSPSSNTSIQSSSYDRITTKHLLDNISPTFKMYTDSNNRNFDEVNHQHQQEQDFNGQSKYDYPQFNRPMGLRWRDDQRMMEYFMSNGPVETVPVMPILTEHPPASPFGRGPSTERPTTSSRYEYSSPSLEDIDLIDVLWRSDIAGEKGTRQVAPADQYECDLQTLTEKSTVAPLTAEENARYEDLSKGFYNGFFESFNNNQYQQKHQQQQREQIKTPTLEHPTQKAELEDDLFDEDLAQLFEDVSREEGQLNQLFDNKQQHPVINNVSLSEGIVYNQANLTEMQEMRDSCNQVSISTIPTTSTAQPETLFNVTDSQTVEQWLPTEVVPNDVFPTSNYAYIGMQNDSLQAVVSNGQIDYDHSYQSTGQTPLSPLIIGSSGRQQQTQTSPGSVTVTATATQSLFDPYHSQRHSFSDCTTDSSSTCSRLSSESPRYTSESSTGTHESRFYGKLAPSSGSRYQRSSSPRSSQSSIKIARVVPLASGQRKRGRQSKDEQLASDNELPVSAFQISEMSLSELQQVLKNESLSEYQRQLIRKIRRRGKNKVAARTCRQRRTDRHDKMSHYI", "type": "functional"}, "[1]": {"test": "viability of uninfected HEp-2 cells – cell-based, HTS, cytotoxicity control for RSV inhibitor project, dose response (AID 2410)", "type": "functional", "conditions": "human respiratory syncytial virus"}, "[2]": {"test": "loss of viability in HepG2 cells – cell-based, CellTiter-Glo, cherry-picked, cytotoxicity control for Shn3 inhibitor project, dose response (AID 624134)", "type": "functional"}, "[3]": {"test": "reduction of Shn3 3'UTR-driven luciferase in osteoblasts – cell-based, Clone20 osteoblasts, firefly luciferase, cherry-picked, dose response (AID 624132)", "type": "functional"}, "[4]": {"test": "non-specific 3'UTR reporter inhibition in Clone20-Shn3RL – cell-based, Renilla luciferase, cherry-picked, counter-screen for Shn3 inhibitor project, dose response (AID 624133)", "type": "functional"}, "[5]": {"target": "T2, Short transient receptor potential channel 4 (Mus musculus, UniProt Q9QUQ5)", "T2 sequence (Q9QUQ5 whole entry)": "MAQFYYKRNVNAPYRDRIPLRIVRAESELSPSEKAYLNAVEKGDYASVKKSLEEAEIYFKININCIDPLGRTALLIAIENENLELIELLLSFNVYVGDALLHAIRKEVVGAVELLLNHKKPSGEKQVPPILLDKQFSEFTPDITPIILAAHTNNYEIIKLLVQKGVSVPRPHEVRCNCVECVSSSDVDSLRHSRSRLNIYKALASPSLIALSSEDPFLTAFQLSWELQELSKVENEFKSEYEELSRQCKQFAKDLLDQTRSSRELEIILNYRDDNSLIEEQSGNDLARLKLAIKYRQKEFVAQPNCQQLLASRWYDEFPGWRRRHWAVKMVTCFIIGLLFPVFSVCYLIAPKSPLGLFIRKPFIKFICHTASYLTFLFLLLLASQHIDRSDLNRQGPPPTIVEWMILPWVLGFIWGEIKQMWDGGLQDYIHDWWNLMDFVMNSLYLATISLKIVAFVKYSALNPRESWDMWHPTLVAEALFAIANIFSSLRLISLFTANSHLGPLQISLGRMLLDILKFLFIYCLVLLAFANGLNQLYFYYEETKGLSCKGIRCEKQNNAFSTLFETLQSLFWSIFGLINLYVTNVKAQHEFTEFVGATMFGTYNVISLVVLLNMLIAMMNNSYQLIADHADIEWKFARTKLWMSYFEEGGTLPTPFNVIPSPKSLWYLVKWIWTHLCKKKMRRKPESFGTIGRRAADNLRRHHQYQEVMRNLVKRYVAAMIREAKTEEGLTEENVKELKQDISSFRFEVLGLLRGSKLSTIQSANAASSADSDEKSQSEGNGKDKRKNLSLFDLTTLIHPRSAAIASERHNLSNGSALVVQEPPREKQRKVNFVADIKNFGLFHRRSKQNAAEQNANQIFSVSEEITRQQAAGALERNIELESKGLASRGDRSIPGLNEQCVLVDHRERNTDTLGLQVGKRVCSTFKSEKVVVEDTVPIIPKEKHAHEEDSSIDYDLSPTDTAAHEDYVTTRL", "test": "calcium entry via TRPC4 opening agents – cell-based, HEK293 TRPC4/mu-opioid, Fluo-4 calcium, dose response (AID 434937)", "type": "functional"}, "[6]": {"target": "T2, Short transient receptor potential channel 4", "test": "block of DAMGO-driven TRPC4 calcium entry – cell-based, HEK293 TRPC4/mu-opioid, Fluo-4 calcium, dose response (AID 434942);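 also: potency of inhibitors blocking the TRPC4 calcium response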", "type": "functional"}, "[7]": {"test": "NIH3T3 cell viability loss – ATP luminescence, mouse fibroblasts, counter-screen, dose response (AID 2010);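 also: cells exposed to compound for about 90 hours before reading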", "type": "functional, cell-based"}, "[8]": {"test": "Trypanosoma cruzi growth suppression in host cells – NIH3T3 host cells, beta-gal luminescence, confirmation (AID 2044);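 also: intracellular parasites grown in NIH/3T3 mouse fibroblasts as host cells; luminescent beta-galactosidase reporter signal from transgenic T. cruzi replicating inside host cells; inhibitors lower the luminescence signal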", "type": "functional, cell-based"}, "Cytochrome P450 2C9": {"target": "Cytochrome P450 2C9 (Homo sapiens, UniProt P11712)", "sequence (P11712 whole entry)": "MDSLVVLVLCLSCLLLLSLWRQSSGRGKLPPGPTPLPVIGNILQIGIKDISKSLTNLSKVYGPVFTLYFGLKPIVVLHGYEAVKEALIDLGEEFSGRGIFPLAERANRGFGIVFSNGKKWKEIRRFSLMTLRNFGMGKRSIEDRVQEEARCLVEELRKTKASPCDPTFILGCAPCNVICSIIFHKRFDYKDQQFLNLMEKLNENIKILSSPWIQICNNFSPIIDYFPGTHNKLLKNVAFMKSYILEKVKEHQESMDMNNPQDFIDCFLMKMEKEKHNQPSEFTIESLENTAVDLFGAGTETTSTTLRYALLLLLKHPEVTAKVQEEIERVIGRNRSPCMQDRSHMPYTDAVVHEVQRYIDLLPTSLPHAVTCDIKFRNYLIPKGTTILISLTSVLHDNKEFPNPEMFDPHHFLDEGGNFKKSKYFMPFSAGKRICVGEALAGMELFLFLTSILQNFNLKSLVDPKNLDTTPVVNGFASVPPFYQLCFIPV"}, "cells": {"test": "cells", "type": "functional"}, "Genome polyprotein": {"target": "Genome polyprotein (dengue virus type 2, UniProt P29990)", "sequence (P29990 2492-3391 limits assumed)": "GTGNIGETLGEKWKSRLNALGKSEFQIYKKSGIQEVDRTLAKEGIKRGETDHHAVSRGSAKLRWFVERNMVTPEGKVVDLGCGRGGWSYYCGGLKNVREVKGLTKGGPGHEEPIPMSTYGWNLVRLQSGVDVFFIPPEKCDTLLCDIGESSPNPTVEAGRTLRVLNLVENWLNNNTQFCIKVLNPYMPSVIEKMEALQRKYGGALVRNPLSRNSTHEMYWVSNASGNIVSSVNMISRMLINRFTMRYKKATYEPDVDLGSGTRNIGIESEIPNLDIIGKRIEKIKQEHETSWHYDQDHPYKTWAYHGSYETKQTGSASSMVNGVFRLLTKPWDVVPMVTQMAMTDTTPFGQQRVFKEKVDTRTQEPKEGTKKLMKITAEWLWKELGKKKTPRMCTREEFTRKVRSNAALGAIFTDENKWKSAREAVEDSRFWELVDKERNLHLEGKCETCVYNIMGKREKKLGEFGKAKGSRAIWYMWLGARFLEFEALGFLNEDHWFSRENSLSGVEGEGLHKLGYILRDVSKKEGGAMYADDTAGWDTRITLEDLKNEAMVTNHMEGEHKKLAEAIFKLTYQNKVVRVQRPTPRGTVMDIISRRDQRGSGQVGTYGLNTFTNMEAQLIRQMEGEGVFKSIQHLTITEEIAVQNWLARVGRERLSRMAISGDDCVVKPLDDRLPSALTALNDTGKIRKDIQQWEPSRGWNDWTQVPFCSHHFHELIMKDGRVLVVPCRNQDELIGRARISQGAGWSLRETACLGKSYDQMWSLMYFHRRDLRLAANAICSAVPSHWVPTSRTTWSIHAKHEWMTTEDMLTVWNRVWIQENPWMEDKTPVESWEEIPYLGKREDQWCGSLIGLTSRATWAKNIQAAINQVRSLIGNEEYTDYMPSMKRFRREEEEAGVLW", "test": "flavivirus cap methylation enzyme inhibition – biochemical, confirmation dose response, primary screen (AID 588689)", "type": "functional"}}, "note": "Activity calls are given as the source filed them."}
{"compound": "CCN(CC)CCC(c1cc(OC)c(OC)c(OC)c1)c1c(OC)cc(OC)c2c(C)cc(=O)oc12", "note": "(stereo not given)", "values": [{"measurement": "IC50", "setting": "Protein skinhead-1", "value": "> 100 µM (inactive)"}]}
{"compound": "CCN(CC)C(=O)Oc1ccc2cc(Br)ccc2c1", "values": [{"measurement": "CC50", "setting": "[1]", "value": "37 µM (active)"}]}
{"compound": "Cc1onc(-c2ccccc2)c1C(=O)Nc1nc2c(s1)C(=O)CC(C)(C)C2", "values": [{"measurement": "IC50", "setting": "Protein skinhead-1", "value": "> 100 µM (inactive)"}]}
{"compound": "COc1ccc(-n2c(C)cc(C(=O)CSc3nnc(-c4cccs4)o3)c2C)cc1", "values": [{"measurement": "AC50", "setting": "[2]", "value": "48.6 µM (active)"}, {"measurement": "AC50", "setting": "[3]", "value": "5.03 µM (active)"}, {"measurement": "AC50", "setting": "[4]", "value": "5.62 µM (active)"}]}
{"compound": "CN(C)/C=C1\\C(=O)N(c2ccc([N+](=O)[O-])cc2)N=C1c1ccccc1", "values": [{"measurement": "EC50", "setting": "[5]", "value": "10.6 µM (active)"}, {"measurement": "CC50", "setting": "[1]", "value": "31.8 µM (active)"}, {"measurement": "EC50", "setting": "[6]", "value": "15 µM (active)"}]}
{"compound": "CCOc1ccccc1C(=O)Nc1ccc(-n2nncc2C(C)(C)C)cc1", "values": [{"measurement": "IC50", "setting": "Protein skinhead-1", "value": "> 100 µM (inactive)"}]}
{"compound": "CCC(C)(C)c1nnc(NC(=O)CCC2CCCCC2)s1", "values": [{"measurement": "IC50", "setting": "Protein skinhead-1", "value": "> 100 µM (inactive)"}]}
{"compound": "CC1N(C)c2cc(NC(=O)c3cccs3)c(P(=O)(Nc3ccc([N+](=O)[O-])cc3)N3CCOCC3)cc2C1(C)C", "note": "(stereo not given)", "values": [{"measurement": "EC50", "setting": "[7]", "value": "> 30 µM (not active)"}, {"measurement": "EC50", "setting": "[8]", "value": "1.98 µM (active)"}, {"measurement": "CC50", "setting": "[1]", "value": "32.1 µM (active)"}]}
{"compound": "COC(=O)c1ccc(CCc2cc(O)ccc2O)cc1", "values": [{"measurement": "AC50", "setting": "[2]", "value": "> 70 µM (inactive)"}, {"measurement": "AC50", "setting": "[3]", "value": "3.14 µM (active)"}, {"measurement": "AC50", "setting": "[4]", "value": "14.5 µM (active)"}, {"measurement": "AC50", "setting": "Cytochrome P450 2C9", "value": "7.94 µM (inconclusive)"}]}
{"compound": "O=C(NC(=S)Nc1ccc(CN2CCCCC2)cc1)c1cc2ccccc2o1", "values": [{"measurement": "IC50", "setting": "Protein skinhead-1", "value": "32.2 µM (active)"}]}
{"compound": "Cc1ccc(-c2noc(CCCC(=O)Nc3cccnc3)n2)cc1", "values": [{"measurement": "IC50", "setting": "cells", "value": "37.4 µM (active)"}]}
{"compound": "COc1ccc(CCNC(=O)c2cc(-c3ccc(C)c(C)c3O)[nH]n2)cc1OC", "values": [{"measurement": "CC50", "setting": "[1]", "value": "> 50 µM (active)"}]}
{"compound": "Cc1cc(=O)c2c(o1)C(=O)c1occc1C2=O", "values": [{"measurement": "IC50", "setting": "Genome polyprotein", "value": "62.4 µM (active)"}]}
{"compound": "Cc1c(Br)c(O)c(Br)c2sc(=O)oc12", "values": [{"measurement": "IC50", "setting": "Genome polyprotein", "value": "62.3 µM (active)"}]}
{"compound": "Cc1[nH]c2ccccc2c1C(=O)C(C)OC(=O)c1ccc([N+](=O)[O-])o1", "note": "(stereo not given)", "values": [{"measurement": "IC50", "setting": "cells", "value": "< 0.1 µM (active)"}]}
{"compound": "CC(=O)NC(=S)Nc1cccc2c(C)cc(C)nc12", "values": [{"measurement": "CC50", "setting": "[1]", "value": "> 50 µM (active)"}]}
